MAC1+ percent, differentiation and EC50 data for 40 compounds are collected here from PubChem BioAssay AID743179 (NMMLSC, 2013).

pEC50: −log10 of the molar value. Calls of active or inactive are those of the source.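 Rule for the calls: active = at least 15% of cells MAC1 differentiation marker positive at top dose, with half-maximal concentration under 10 µM; inactive = the rest.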

System in one assay: not listed separately
The assay is described as follows: MAC1 induction in THP1 leukemia cells – cell-based, MAC1 flow cytometry, set 1, SAR follow-up (AID 743179). As to conditions: THP1 MAC1+ differentiation, flow cytometry, 4 days; at 10 µM (top of the series).
For the compound `O=C(CCNC(=O)c1ccc(Cl)cc1)N[C@H]1CCCc2ccccc21`, the MAC1+ percent, differentiation was 7% (inactive).

Regarding `Cc1ccc(C(=O)NCCC(=O)N[C@@H]2CCCc3ccccc32)cc1`, the MAC1+ percent, differentiation is 97% (inactive).

As to `CC(NC(=O)C1CCCN(C(=O)c2ccc(Cl)cc2)C1)c1ccccc1` (stereo not given), the MAC1+ percent, differentiation was 6% (inactive).

On to `O=C(O)c1ccccc1OCc1ccccc1Br`, for which the MAC1+ percent, differentiation was 4% (inactive).

As for `O=C(Cc1ccc(Cl)cc1)NCCC(=O)N[C@@H]1CCCc2ccccc21`, the MAC1+ percent, differentiation was 13% (inactive).

Regarding `O=C(CNC(=O)c1ccc(C(F)(F)F)cc1)N[C@@H]1CCCc2ccccc21`, the MAC1+ percent, differentiation was 3% (inactive).

Take `O=C(NC1CCc2ccccc21)C1CCCN(C(=O)c2ccc(Cl)cc2)C1` (stereo not given): the MAC1+ percent, differentiation is 4% (inactive).

`Cc1ccc(C)c(OCCn2cc(C(=O)O)c3ccccc32)c1`: the MAC1+ percent, differentiation was 2% (inactive).

For `COc1ccccc1C(C)NC(=O)CCNC(=O)c1ccc(Cl)cc1` (stereo not given), the MAC1+ percent, differentiation was -1% (inactive).

Consider `O=C(CNC(=O)c1ccc(Cl)c(Cl)c1)N[C@@H]1CCCc2ccccc21`, for which the MAC1+ percent, differentiation was 6% (inactive).

Regarding `O=C(CCCNC(=O)c1ccc(Cl)c(Cl)c1)N[C@@H]1CCCc2ccccc21`, the MAC1+ percent, differentiation is 3% (inactive).

Take `O=C(CCNC(=O)c1ccccc1)N[C@@H]1CCCc2ccccc21`: the MAC1+ percent, differentiation is 2% (inactive).

As to `CC(C)(C)OC(=O)NCCC(=O)N[C@@H]1CCCc2ccccc21`, the MAC1+ percent, differentiation is 2% (inactive).

Consider `O=C(CNC(=O)c1ccc(Cl)cc1)N[C@@H]1CCCc2ccccc21`, for which the MAC1+ percent, differentiation is 4% (inactive).

Regarding `CC(NC(=O)CCNC(=O)c1ccc(Cl)cc1)c1ccc(F)cc1` (stereo not given), the MAC1+ percent, differentiation is 6% (inactive).

For the compound `C[C@@H](NC(=O)CCNC(=O)c1ccc(Cl)cc1)c1ccccc1`, the MAC1+ percent, differentiation was 5% (inactive).

`O=C(CCNC(=O)c1ccc(Cl)c(Cl)c1)N[C@@H]1CCCc2ccccc21`: the MAC1+ percent, differentiation is 109% (inactive).

As to `Cc1cccc(C(=O)NCCC(=O)NC2CCCc3ccccc32)c1` (stereo not given), the MAC1+ percent, differentiation is 4% (inactive).

`O=C(CCCNC(=O)c1ccc(C(F)(F)F)cc1)N[C@@H]1CCCc2ccccc21`: the MAC1+ percent, differentiation is 2% (inactive).

Regarding `CC(=O)NCCC(=O)N[C@@H]1CCCc2ccccc21`, the MAC1+ percent, differentiation was 2% (inactive).

As to `O=C(CCCNC(=O)c1ccc(OC(F)(F)F)cc1)N[C@@H]1CCCc2ccccc21`, the MAC1+ percent, differentiation is 3% (inactive).

Take `NCCC(=O)N[C@@H]1CCCc2ccccc21`: the MAC1+ percent, differentiation was 1% (inactive).

As for `CC(C)(C)OC(=O)NCCC(=O)N[C@H]1CCCc2ccccc21`, the MAC1+ percent, differentiation is 2% (inactive).

As for `O=C(NC1CCOc2ccccc21)C1CCCN(C(=O)c2ccc(Cl)cc2)C1` (stereo not given), the MAC1+ percent, differentiation was 5% (inactive).

On to `O=C(CNC(=O)c1ccc(OC(F)(F)F)cc1)N[C@@H]1CCCc2ccccc21`, for which the MAC1+ percent, differentiation was 3% (inactive).

Turning to `O=C(CCNC(=O)c1ccc(Cl)cc1)NC1CCCCC1`, the MAC1+ percent, differentiation was 3% (inactive).

Turning to `CC(c1ccccc1)N(C)C(=O)CCNC(=O)c1ccc(Cl)cc1` (stereo not given), the MAC1+ percent, differentiation was 7% (inactive).

Turning to `O=C(CCCNC(=O)c1ccc(Cl)cc1)N[C@@H]1CCCc2ccccc21`, the MAC1+ percent, differentiation was 5% (inactive).

With `O=C(CCNC(=O)c1ccc(F)cc1)N[C@@H]1CCCc2ccccc21`, the MAC1+ percent, differentiation is 46% (inactive).

Consider `O=C(CCNC(=O)c1ccc(Cl)cc1)N[C@@H]1CCc2ccccc21`, for which the MAC1+ percent, differentiation was 21% (inactive).

On to `CC(NC(=O)CCNC(=O)c1ccc(Cl)cc1)c1ccc2c(c1)OCO2` (stereo not given), for which the MAC1+ percent, differentiation was 5% (inactive).

Regarding `N#Cc1ccc(C(=O)NCCC(=O)N[C@@H]2CCCc3ccccc32)cc1`, the MAC1+ percent, differentiation was 17% (inactive).

The next assay relates to THP1 MAC1+ differentiation, flow cytometry, 4 days. Described as above.
Details: not given
Regarding `O=C(CCNC(=O)c1ccc2c(c1)OC(F)(F)O2)N[C@@H]1CCCc2ccccc21`, the negative-log EC50 (pEC50) is 5.37.

As to `O=C(CCNC(=O)c1ccc(OC(F)(F)F)cc1)N[C@@H]1CCCc2ccccc21`, the pEC50 was 5.68.

With `O=C(CCNC(=O)c1ccc(Cl)cc1)NC1CCCc2ccccc21` (stereo not given), the pEC50 is 5.42.

Turning to `O=C(CCNC(=O)c1ccc(C(F)(F)F)cc1)N[C@@H]1CCCc2ccccc21`, the pEC50 is 5.60.

Turning to `O=C(CCNC(=O)c1ccc(Cl)cc1)N[C@@H]1CCCc2ccccc21`, the pEC50 is 5.51.

Take `COc1ccc(C(=O)NCCC(=O)N[C@@H]2CCCc3ccccc32)cc1`: the pEC50 was 5.29.

As for `O=C(O)c1cccnc1Nc1ccc(Cl)cc1`, the negative logarithm of the EC50 (pEC50) was 5.26.

As to `O=C(CCNC(=O)c1cccc(Cl)c1)N[C@@H]1CCCc2ccccc21`, the pEC50 is 5.04.
